Measurements taken from US4260682A, “High sensitivity assays for angiotensin converting enzyme” (priority 1979, dated 1981).

What was measured:
Format in all cases: biochemical
ACE [1] = assay: Sulfate and chloride effects on ACE catalysed hydrolysis (general description)
Excerpt: An assay for ACE, using HipHisLeu as substrate, is herewith described. The assay is more sensitive than any heretofore disclosed using HipHisLeu as substrate. Maximum sensitivity is achieved by the inclusion of sulfate ions, preferably as sodium sulfate, in the reaction mixture. When 0.1 M NaCl is present in the reaction mixture, sulfate ions are stimulatory from 0.1 M to at least 1.1 M. Maximum stimulation occurs in the range from 0.75 M to 1.1 M Na2 SO4.
An even more sensitive assay for ACE activity has been developed using the novel compound ^3 H-benzoylPheAlaPro as substrate. This new substrate can be used to assay ACE in human urine in incubations as short as 15 minutes. The response of this substrate to ions is strikingly different from the response of HipHisLeu. […] This difficulty has been solved by the proper choice of extracting solvent. While a variety of organic solvents may be suitable for the extraction step, it is preferred to employ toluene. Approximately 88% of ^3 H-benzoylPhe enters the toluene phase while only 6% of the unhydrolyzed substrate enters the toluene phase, when toluene and the acidified reaction mixture are in approximately equal volumes at room temperatures.
The enzyme is active over a broad pH range with a maximum around pH 8.0, but is at least about 50% active in the range pH 7.0-pH 8.8, for both HipHisLeu and benzoylPheAlaPro. Although the enzyme is active in a variety of buffer systems known in the art, it is preferred for convenience, when using benzoylPheAlaPro as substrate, to conduct the assays in 0.05 M Hepes buffer, pH 8.0 containing 0.15 M sodium chloride. Detailed protocols for carrying out the assay are given in the examples. […] The preferred concentration range is 1×10^-9 M to 7×10^- 5 M.

Guinea pig serum ACE = target: T1, Guinea pig serum ACE (Cavia porcellus, UniProt H0UWL7); assay: Kinetics of (sulfate-stimulated) HipHisLeu hydrolysis; conditions: 0.05 M Hepes, pH 8.0, 0.1 M NaCl, 0.75 M Na2 SO4; Lineweaver and Burke plot
T1 sequence (H0UWL7 33-1234): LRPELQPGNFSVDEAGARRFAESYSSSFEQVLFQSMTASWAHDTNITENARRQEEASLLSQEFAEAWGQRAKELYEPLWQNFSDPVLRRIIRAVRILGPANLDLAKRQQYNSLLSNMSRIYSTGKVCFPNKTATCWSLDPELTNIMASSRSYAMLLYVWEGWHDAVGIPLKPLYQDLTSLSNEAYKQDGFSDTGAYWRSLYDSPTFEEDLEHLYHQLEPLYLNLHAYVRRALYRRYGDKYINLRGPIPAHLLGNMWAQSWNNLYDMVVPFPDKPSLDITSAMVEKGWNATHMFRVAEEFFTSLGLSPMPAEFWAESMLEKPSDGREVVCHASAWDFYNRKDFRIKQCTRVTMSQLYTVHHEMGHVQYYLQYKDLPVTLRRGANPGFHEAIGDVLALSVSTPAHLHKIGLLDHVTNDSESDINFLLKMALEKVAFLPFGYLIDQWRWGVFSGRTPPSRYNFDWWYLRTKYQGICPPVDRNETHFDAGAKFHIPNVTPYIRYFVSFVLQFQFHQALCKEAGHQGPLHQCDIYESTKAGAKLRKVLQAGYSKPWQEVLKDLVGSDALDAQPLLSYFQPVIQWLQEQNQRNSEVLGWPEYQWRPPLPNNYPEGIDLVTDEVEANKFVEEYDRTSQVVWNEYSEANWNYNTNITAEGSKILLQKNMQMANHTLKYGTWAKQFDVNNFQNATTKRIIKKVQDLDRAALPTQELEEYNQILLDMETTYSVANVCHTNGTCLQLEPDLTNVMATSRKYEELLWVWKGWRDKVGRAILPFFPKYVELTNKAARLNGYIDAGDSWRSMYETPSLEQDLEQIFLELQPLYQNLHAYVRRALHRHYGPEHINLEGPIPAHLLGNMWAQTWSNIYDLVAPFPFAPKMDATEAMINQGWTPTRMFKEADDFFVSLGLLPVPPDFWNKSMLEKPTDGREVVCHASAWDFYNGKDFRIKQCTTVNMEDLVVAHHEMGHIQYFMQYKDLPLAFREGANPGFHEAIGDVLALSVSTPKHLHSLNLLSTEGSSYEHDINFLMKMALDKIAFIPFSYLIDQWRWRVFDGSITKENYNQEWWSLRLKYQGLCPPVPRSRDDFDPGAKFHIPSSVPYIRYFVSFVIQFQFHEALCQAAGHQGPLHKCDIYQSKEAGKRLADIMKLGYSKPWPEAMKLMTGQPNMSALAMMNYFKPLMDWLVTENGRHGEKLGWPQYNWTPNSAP
Description: Kinetics of Sulfate-Stimulated HipHisLeu Hydrolysis
In each assay, 50 μl of Guinea pig serum diluted 1-20 (v/v) in the reaction buffer was mixed with 50 μl of buffer containing sufficient ^3 H-HipHisLeu to provide approximately 100,000 cpm total, together with sufficient unlabeled HipHisLeu to produce the desired substrate concentrations, as indicated in Table 2. […] The reaction mixture was then extracted with 1 ml ethyl acetate. 500 μl of the ethyl acetate fraction was sampled and counted in a scintillation counter.

ACE [2] = target: ACE (Homo sapiens, UniProt P12821); assay: Comparison of sensitivity of ACE radioassays; conditions: radioactivity of remnant product; HipHisLeu assay sulfate stimulated
ACE (Homo sapiens, UniProt P12821), sequence (P12821 30-1306, species assumed): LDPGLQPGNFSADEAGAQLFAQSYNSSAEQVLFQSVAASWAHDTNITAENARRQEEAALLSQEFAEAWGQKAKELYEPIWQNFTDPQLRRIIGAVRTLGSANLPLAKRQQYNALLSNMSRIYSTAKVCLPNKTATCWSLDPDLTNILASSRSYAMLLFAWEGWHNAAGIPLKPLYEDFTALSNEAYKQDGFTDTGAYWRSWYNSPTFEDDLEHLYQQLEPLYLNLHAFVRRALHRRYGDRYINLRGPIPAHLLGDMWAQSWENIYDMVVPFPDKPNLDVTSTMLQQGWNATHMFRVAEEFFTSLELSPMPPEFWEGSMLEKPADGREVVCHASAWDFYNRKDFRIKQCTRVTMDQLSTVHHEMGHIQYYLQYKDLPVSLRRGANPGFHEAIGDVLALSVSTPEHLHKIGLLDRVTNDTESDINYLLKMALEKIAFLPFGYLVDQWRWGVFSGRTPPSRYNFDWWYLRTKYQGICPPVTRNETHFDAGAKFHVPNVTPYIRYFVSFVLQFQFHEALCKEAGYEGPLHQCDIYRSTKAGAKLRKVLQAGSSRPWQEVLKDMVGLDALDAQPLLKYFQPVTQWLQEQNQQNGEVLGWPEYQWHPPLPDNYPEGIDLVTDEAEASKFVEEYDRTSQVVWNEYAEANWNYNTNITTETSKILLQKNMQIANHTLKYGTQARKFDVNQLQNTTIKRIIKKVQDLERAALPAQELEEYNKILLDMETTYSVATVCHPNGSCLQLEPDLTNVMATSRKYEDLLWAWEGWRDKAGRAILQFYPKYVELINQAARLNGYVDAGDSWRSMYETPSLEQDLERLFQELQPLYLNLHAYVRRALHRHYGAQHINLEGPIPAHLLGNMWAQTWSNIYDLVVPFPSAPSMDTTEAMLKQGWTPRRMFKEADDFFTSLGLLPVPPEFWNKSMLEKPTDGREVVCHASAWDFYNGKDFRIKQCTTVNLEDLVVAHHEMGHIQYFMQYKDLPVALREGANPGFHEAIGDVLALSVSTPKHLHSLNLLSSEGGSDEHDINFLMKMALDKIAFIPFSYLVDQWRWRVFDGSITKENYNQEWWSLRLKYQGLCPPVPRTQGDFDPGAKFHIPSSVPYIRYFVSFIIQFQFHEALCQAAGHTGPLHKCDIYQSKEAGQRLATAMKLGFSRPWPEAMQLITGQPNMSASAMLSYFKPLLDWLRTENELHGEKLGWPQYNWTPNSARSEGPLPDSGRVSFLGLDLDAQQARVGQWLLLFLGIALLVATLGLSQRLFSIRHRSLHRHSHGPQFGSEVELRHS
Excerpt: A comparison of the sensitivity of the disclosed assay methods with each other and with prior art assays may be made by considering assays which depend upon measuring the radioactivity of the remnant reaction product. A prior art assay of this type, using ^3 H-HipGlyGly as substrate has been described (Ryan and Chung, supra). Of the two assays disclosed herein, the sulfate stimulated hydrolysis of ^3 H-HipHisLeu is approximately 20 times more sensitive, and the ^3 H-benzoylPheAlaPro assay is about 10 times more sensitive still. The latter is therefore approximately 200 times more sensitive than the assay using ^3 H-HipGlyGly.

Compound | effect of NaCl on reaction velocity of ^3 H-benzoylPheAlaPro (ACE [1]; 0.01 M added NaCl) | increase of apparent reaction velocity of ^3 H-benzoylPheAlaPro (ACE [1]; 0.05 M added sodium chloride) | effect on ACE catalyzed hydrolysis of HipHisLeu (ACE [1]; NaCl 0.75 to 1.1 M) | further increase of reaction velocity of ^3 H-benzoylPheAlaPro (ACE [1]; additional sodium chloride, up to 0.5 M) | Km (Guinea pig serum ACE) [µM] | sensitivity relative to the assay using ^3 H-HipGlyGly (ACE [2])
[Cl-].[Na+] [NaCl, sodium chloride] | increases reaction velocity | approximately 3 fold | seriously inhibits | little further increase |  | 
^3 H-HipHisLeu |  |  |  |  | 177 | approximately 20 times
